{"source": "ChEMBL document CHEMBL1122099", "about": "“Antiallergics: 3-(1H-tetrazol-5-yl)-4H-pyrimido[2,1-b]benzothiazol-4-ones” (1982)", "key": {"Rattus norvegicus [1]": {"system": "Rattus norvegicus", "experiment": "Percent inhibition at a concentration of 25 mg/kg in rat passive cutaneous anaphylaxis (PCA) test", "assay_type": "functional"}, "Rattus norvegicus [2]": {"system": "Rattus norvegicus", "experiment": "Tested for the antiallergic activity in rat passive cutaneous anaphylaxis (PCA) test; po", "assay_type": "functional"}, "Rattus norvegicus [3]": {"system": "Rattus norvegicus", "experiment": "Percent inhibition at a concentration of 1.0 mg/kg in methacholine induced bronchospasm in rat", "assay_type": "functional"}, "Rattus norvegicus [4]": {"system": "Rattus norvegicus", "experiment": "Percent inhibition at a concentration of 10.0 mg/kg in methacholine induced bronchospasm in rat", "assay_type": "functional"}, "Rattus norvegicus [5]": {"system": "Rattus norvegicus", "experiment": "Percent inhibition at a concentration of 0.1 mg/kg in methacholine induced bronchospasm in rat", "assay_type": "functional"}, "Rattus norvegicus [6]": {"organism": "Rattus norvegicus", "experiment": "Tested for the bronchodilator activity by measuring inhibition of allergen induced bronchospasm in rat intra duodenally"}, "Rattus norvegicus [7]": {"system": "Rattus norvegicus", "experiment": "Percent inhibition at a concentration of 0.02 mg/kg in methacholine induced bronchospasm in rat intraduodenally", "assay_type": "functional", "details": "route intraduodenal"}}, "data": [{"smiles": "Cc1cc2sc3ncc(-c4nnn[nH]4)c(=O)n3c2cc1C", "values": [{"measurement": "inhibition in vivo at 25 mg/kg", "setting": "Rattus norvegicus [1]", "result": 35, "unit": "%"}]}, {"smiles": "O=C([O-])c1cc(=O)c2c(OCC(O)COc3cccc4oc(C(=O)[O-])cc(=O)c34)cccc2o1.[Na+].[Na+]", "note": "[CROMOLYN SODIUM]", "values": [{"measurement": "ED50", "setting": "Rattus norvegicus [2]", "result": 0.3, "unit": "mg/kg"}]}, {"smiles": "Cc1cc(C)c2sc3ncc(-c4nnn[nH]4)c(=O)n3c2c1", "values": [{"measurement": "ED50", "setting": "Rattus norvegicus [2]", "result": 1.96, "unit": "mg/kg"}]}, {"smiles": "N=c1c(-c2nnn[nH]2)cnc2sc3ccccc3n12", "values": [{"measurement": "ED50", "setting": "Rattus norvegicus [2]", "result": 8.1, "unit": "mg/kg"}]}, {"smiles": "O=c1c(-c2nnn[n-]2)cnc2sc3ccccc3n12.[K+]", "values": [{"measurement": "inhibition in vivo at 1 mg/kg", "setting": "Rattus norvegicus [3]", "result": 59.3, "unit": "%"}, {"measurement": "ED50", "setting": "Rattus norvegicus [2]", "result": 0.08, "unit": "mg/kg"}, {"measurement": "inhibition in vivo at 10 mg/kg", "setting": "Rattus norvegicus [4]", "result": 61, "unit": "%"}, {"measurement": "inhibition in vivo at 0.1 mg/kg", "setting": "Rattus norvegicus [5]", "result": 37.4, "unit": "%"}, {"measurement": "ED50", "setting": "Rattus norvegicus [6]", "result": 0.38, "unit": "mg/kg"}, {"measurement": "inhibition in vivo at 0.02 mg/kg", "setting": "Rattus norvegicus [7]", "result": 13.2, "unit": "%"}]}, {"smiles": "COc1ccc2c(c1)sc1ncc(-c3nnn[nH]3)c(=O)n12", "values": [{"measurement": "ED50", "setting": "Rattus norvegicus [2]", "result": 1.9, "unit": "mg/kg"}]}]}
